Columns and labels:
[1] = system: peroxidized lipid in rat brain homogenate; assay: Lipoperoxidation inhibitory activity in brain homogenate (TBA method); type: biochemical, Wistar male rats; conditions: 30 minutes at 37° C., final conc. 0.3-100 μM, read-out: Anti-lipoperoxidation Activity IC50
Protocol: Brain homogenate was prepared using Wistar male rats in accordance with the following procedure. […] A polyethylene tube was inserted into the aorta through the left ventricle, and fixed. Brain perfusion was conducted using ice-cooled 50 mM phosphate buffered saline (PBS), pH 7.4, through the tube, and whole brain was extracted. After removal of the cerebellum, the cerebrum was weighed while wet and homogenated by a Teflon homogenizer under ice-cooling, after addition of nine-fold by weight of PBS. The resultant homogenate was centrifuged at 4° C. (2200 r.p.m., 10 minutes), and an aliquot of the supernatant (0.3 ml) was placed in a light-resistant test tube with ground stopper and used for the following test.
To the brain homogenate obtained above were added PBS (0.6 ml) and an ethanol solution (10 μl) containing a predetermined amount of a test compound. Thus, each of the ethanol solutions was prepared so that the final concentration of the compound was 0.3-100 μM. The mixture was allowed to warm for 30 minutes at 37° C. (external bath temperature). […] (2600 r.p.m., 10 minutes). The resultant supernatant was used in the following quantitative analysis.
The aqueous mixture was heated in a boiling-water bath for 60 minutes and cooled rapidly. Distilled water (1.0 ml) and a mixture of pyridine and butanol (1:15) (5.0 ml) were added to the cooled mixture, and the latter was shaken for 30 seconds and centrifuged (3000 r.p.m., 10 minutes). The supernatant was used as a test sample for quantitative analysis of peroxidized lipid as mentioned below.

mice = assay: Passive avoidance response test (memory-improving activity, cycloheximide-treated mice); type: in vivo; conditions: Mus musculus; oral, 15 mice per group, cycloheximide 120 mg/kg s.c., latent time; read-out: Memory-Improving Activity, Minimum Effective Dose
Protocol: Passive avoidance response test was conducted in mice (15 animals per group) using light-dark differential apparatus of step-down type. The apparatus consisted of a dark room made of black and rigid vinylidene chloride resin [30 cm (depth)×30 cm (width)×31 cm (height)] and a light room, as an adjacent room, made of transparent rigid vinylidene chloride resin. The floor of the light room was set 2 cm higher than the grid surface of the dark room (step down type), and there was a guillotine door between the rooms. The animals were placed in the apparatus and acclimatized before test, and latent time for moving from the light room to the dark room was determined.
The acclimatized animals subcutaneously received 120 mg/kg of cycloheximide (Sigma) dissolved in physiological saline. After 30 minutes of the administration, the animals were placed in the light room. Immediatly after the movement of the animals to the dark room, electric current was applied on the grid (0.5 mA, 3 seconds), which gave the animals "aquired behavior". After 24 hours of the establishment of the aquired behavior, a test compound suspended in 1% tragacanth was administered orally to the animals, which were then returned to the light room. Control animals received only 1% tragacanth. The latent time until an individual animal started to move to the dark room was determined.

Acute toxicity, oral = conditions: rat, in vivo, SD rats, seven-day observation
Protocol: Compounds of the invention suspended in 1% tragacanth was orally administered to SD rats (both male and female) and mortality (LD50) was determined after seven-day observation.

SMILES	IC50 [1] [µM]	minimal effective dose (mice) [mg/kg]	LD50 at 168 h (Acute toxicity, oral) [mg/kg]
COc1ccc(-c2c(C)[nH]c(=O)n2C)cc1 [Compound A, reference compound]	147	–	–
CCCCn1c(-c2ccccc2)c(C)[nH]c1=O [Compound B, reference compound]	> 100	–	–
CCCCCCc1ccc(-c2c(C)[nH]c(=O)n2C)cc1 [Compound No. 1, 1,4-Dimethyl-5-(4'-n-hexylphenyl)-4-imidazolin-2-one]	9	0.3	–
CCCCc1ccc(-c2c(C)[nH]c(=O)n2C)cc1 [Compound No. 2, 5-(4'-n-Butylphenyl)-1,4-dimethyl-4-imidazolin-2-one]	10.7	0.1	> 1000
CCCc1ccc(-c2c(C)[nH]c(=O)n2C)cc1 [Compound No. 7]	21.5	–	–
Cc1[nH]c(=O)n(C)c1-c1ccc(C(C)(C)C)cc1 [Compound No. 9]	8.4	–	–
CCCCCCCCCCc1ccc(-c2c(C)[nH]c(=O)n2C)cc1 [Compound No. 12]	7.9	0.3	–
CCCCCCCCCCCCc1ccc(-c2c(C)[nH]c(=O)n2C)cc1 [Compound No. 13]	13	3	–
Cc1[nH]c(=O)n(C)c1-c1ccc(OCCC(C)C)cc1 [Compound No. 20]	6.6	–	–
CCCCCCOc1ccc(-c2c(C)[nH]c(=O)n2C)cc1 [Compound No. 21]	7.3	–	–
Cc1[nH]c(=O)n(C(C)C)c1-c1ccc(C2CCCCC2)cc1 [Compound No. 77, 5-(4'-Cyclohexylphenyl)-1-isopropyl-4-methyl-4-imidazolin-2-one]	8.3	0.1	–
Cc1[nH]c(=O)n(C2CCCCC2)c1-c1ccc(-c2ccccc2)cc1 [Compound No. 93, 1-Cyclohexyl-5-(4-biphenyl)-4-methyl-4-imidazolin-2-one]	10.9	0.1	–
CCCCCCCCCCOc1ccc(-c2c(C)[nH]c(=O)n2C2CCCCC2)cc1 [Compound No. 122, 1-cyclohexyl-5-(4'-decyloxyphenyl)-4-methyl-4-imidazolin-2-one]	10.5	0.1	–
Cc1[nH]c(=O)n(C2CCCCC2)c1-c1ccc(Oc2ccccc2)cc1 [Compound No. 123, 1-Cyclohexyl-4-methyl-5-(4'-phenoxyphenyl)-4-imidazolin-2-one]	7.9	0.1	–
Cc1[nH]c(=O)n(C2CCCCC2)c1-c1ccc(OCc2ccccc2)cc1 [Compound No. 124, 5-(4'-Benzyloxyphenyl)-1-cyclohexyl-4-methyl-4-imidazolin-2-one]	8.3	0.1	–
CCCCc1ccc(-c2c(C)[nH]c(=O)n2Cc2ccccc2)cc1 [Compound No. 137, 1-Benzyl-5-(4'-n-butylphenyl)-4-methyl-4-imidazolin-2-one]	12.4	0.1	> 1000
COC1=C(OC)C(=O)C(CCCCCCCCCCO)=C(C)C1=O [Idebenone, reference compound]	17.2	–	–
CCCCc1ccc(-c2c(CC)[nH]c(=O)n2C)cc1 [compound 3]	13.9	–	–
Cc1[nH]c(=O)n(C)c1-c1ccc(CC(C)C)cc1 [compound 5]	7.8	30	–
CCCCCc1ccc(-c2c(C)[nH]c(=O)n2C)cc1 [compound 6]	5.9	–	–

SMILES	IC50 [1] [µM]	minimal effective dose (mice) [mg/kg]	LD50 at 168 h (Acute toxicity, oral) [mg/kg]
CCCCCCCc1ccc(-c2c(C)[nH]c(=O)n2C)cc1 [compound 10]	8.4	30	–
CCCCCCCCc1ccc(-c2c(C)[nH]c(=O)n2C)cc1 [compound 11]	19.4	30	–
CCCCCCCCCCCCCCc1ccc(-c2c(C)[nH]c(=O)n2C)cc1 [compound 14]	43.8	30	–
Cc1[nH]c(=O)n(C)c1-c1ccc(OC(C)C)cc1 [compound 17]	20.4	–	–
CCCCOc1ccc(-c2c(C)[nH]c(=O)n2C)cc1 [compound 18]	5.1	0.3	–
CCCCCOc1ccc(-c2c(C)[nH]c(=O)n2C)cc1 [compound 19]	4.5	–	–
CCCCCCCOc1ccc(-c2c(C)[nH]c(=O)n2C)cc1 [compound 22]	5.7	–	–
CCCCCCCCOc1ccc(-c2c(C)[nH]c(=O)n2C)cc1 [compound 23]	4	30	–
CCCCCCCCCOc1ccc(-c2c(C)[nH]c(=O)n2C)cc1 [compound 24]	4.8	–	–
CCCCCCCCCCOc1ccc(-c2c(C)[nH]c(=O)n2C)cc1 [compound 25]	6.9	0.1	–
CCCCCCCCCCCCOc1ccc(-c2c(C)[nH]c(=O)n2C)cc1 [compound 26]	9.7	0.1	–
CCCCCCCCCCCCCCCCCCOc1ccc(-c2c(C)[nH]c(=O)n2C)cc1 [compound 27]	–	0.1	–
Cc1[nH]c(=O)n(C)c1-c1ccc(Oc2ccccc2)cc1 [compound 28]	8.1	–	–
Cc1[nH]c(=O)n(C)c1-c1ccc(OCc2ccccc2)cc1 [compound 29]	6.7	–	–
Cc1[nH]c(=O)n(C)c1-c1ccc(OCCCc2ccccc2)cc1 [compound 30]	5.9	30	–
CSc1ccc(-c2c(C)[nH]c(=O)n2C)cc1 [compound 31]	39.4	–	–
CCCCSc1ccc(-c2c(C)[nH]c(=O)n2C)cc1 [compound 32]	11.3	3	–
CCCc1ccc(-c2c(C)[nH]c(=O)n2CC)cc1 [compound 54]	22.6	–	–
CCCCc1ccc(-c2c(C)[nH]c(=O)n2CC)cc1 [compound 55]	24.5	–	–
CCCCc1ccc(-c2c(CC)[nH]c(=O)n2CC)cc1 [compound 56]	13.9	–	–

SMILES	IC50 [1] [µM]	minimal effective dose (mice) [mg/kg]	LD50 at 168 h (Acute toxicity, oral) [mg/kg]
CCCCOc1ccc(-c2c(C)[nH]c(=O)n2CC)cc1 [compound 58]	14.5	0.3	–
CCn1c(-c2ccc(OC(C)C)cc2)c(C)[nH]c1=O [compound 60]	39.1	–	–
CCCCSc1ccc(-c2c(C)[nH]c(=O)n2CC)cc1 [compound 61]	12.9	–	–
CCCCc1ccc(-c2c(C)[nH]c(=O)n2C(C)C)cc1 [compound 78]	10.7	0.3	–
CCCCOc1ccccc1-c1c(C)[nH]c(=O)n1C(C)C [compound 80]	25.5	–	–
Cc1[nH]c(=O)n(C2CCCCC2)c1-c1ccc(OCCC(C)C)cc1 [compound 94, 1-Cyclohexyl-5-(4'-isoamyloxyphenyl)-4-methyl-4-imidazolin-2-one]	7.2	–	–
CCCCCCCCc1ccc(-c2c(C)[nH]c(=O)n2C2CCCCC2)cc1 [compound 101]	10.3	–	–
CCCCCCCCCCc1ccc(-c2c(C)[nH]c(=O)n2C2CCCCC2)cc1 [compound 102]	27	–	–
CCCc1ccc(-c2c(C)[nH]c(=O)n2C2CCCCC2)cc1 [compound 106]	13.9	30	–
Cc1[nH]c(=O)n(C2CCCCC2)c1-c1cccc(OC(C)C)c1 [compound 107]	10.4	–	–
Cc1[nH]c(=O)n(C2CCCCC2)c1-c1ccccc1OC(C)C [compound 108]	21.5	–	–
Cc1[nH]c(=O)n(C2CCCCC2)c1-c1ccc(OC(C)C)cc1 [compound 109]	13	0.1	–
CCCCOc1cccc(-c2c(C)[nH]c(=O)n2C2CCCCC2)c1 [compound 110]	9	–	–
CCCCOc1ccc(-c2c(C)[nH]c(=O)n2C2CCCCC2)cc1 [compound 111]	13.9	0.1	–
CCCCCOc1ccc(-c2c(C)[nH]c(=O)n2C2CCCCC2)cc1 [compound 112]	9.1	–	–
Cc1[nH]c(=O)n(Cc2ccccc2)c1-c1ccc(C(C)(C)C)cc1 [compound 138]	8.6	–	–
CCCCCCc1ccc(-c2c(C)[nH]c(=O)n2Cc2ccccc2)cc1 [compound 139]	8.2	–	–
Cc1[nH]c(=O)n(Cc2ccccc2)c1-c1ccc(C2CCCCC2)cc1 [compound 140]	35.3	–	–
Cc1[nH]c(=O)n(Cc2ccccc2)c1-c1ccc(-c2ccccc2)cc1 [compound 141]	7.9	0.1	–
CCCCOc1ccc(-c2c(C)[nH]c(=O)n2Cc2ccccc2)cc1 [compound 142]	12.8	0.3	–

From US5116858A, “4-imidazoline derivatives” (Mitsubishi Kasei Corporation, priority 1989, dated 1992)
